The results in this text go back to patent US11028089B2, “Pyrimido-diazepinone kinase scaffold compounds and methods of treating DCLK1/2-mediated disorders” (DANA-FARBER CANCER INSTITUTE, INC., priority 2016, dated 2021).

The target of this assay is T1, recombinant DCLK1 (Homo sapiens, UniProt O15075).
T1 construct: N-terminally 6-His tagged human DCLK1 residues G351-H689 was prepared; 6-His (N); made in house; host or cells: E. coli BL21(DE3), co-transformed with lambda phosphatase
T1 sequence (O15075 351-689 isoform O15075-2): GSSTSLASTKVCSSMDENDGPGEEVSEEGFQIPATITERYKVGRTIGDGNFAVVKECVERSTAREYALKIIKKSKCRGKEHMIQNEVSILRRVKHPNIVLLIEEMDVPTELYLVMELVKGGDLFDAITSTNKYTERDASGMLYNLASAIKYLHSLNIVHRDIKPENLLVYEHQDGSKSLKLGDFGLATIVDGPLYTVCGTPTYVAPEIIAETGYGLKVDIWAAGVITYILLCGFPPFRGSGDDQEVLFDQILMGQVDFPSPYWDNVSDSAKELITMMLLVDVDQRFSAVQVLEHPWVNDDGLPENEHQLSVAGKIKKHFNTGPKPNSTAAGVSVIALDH
As to the kind of experiment: DCLK1 mobility shift assay (gel shift assay). The class given is biochemical. As to conditions: 30 nM recombinant DCLK1, 100 μM ATP, 1 μM FAM-labeled peptide substrate, two hours at room temperature, 8-point dose-response. The method, then: The DNA construct consisting of N-terminally 6-His tagged human DCLK1 residues G351-H689 was prepared. Thus prepared plasmid was co-transformed with lambda phosphatase under chloramphenicol selection into BL21(DE3) E. coli cells.
Protein expression was induced from the DCLK1 plasmid with 0.6 mM IPTG and expression was allowed to continue for about 10 hours at a temperature of 18° C. Cells was harvested by centrifugation and resuspended in Lysis buffer with protease inhibitors (1 mM Benzamidine and 1 mM PMSF). Lysis was performed by passing 3 times through a homogenizer. Lysate was centrifuged at 20K for 1 hour at a temperature of 4° C. and the supernatant was filtered through a 0.2 micron membrane. Protein was loaded on nickel (Ni)-NTA resin, washed with Wash buffers, and eluted with 300 mM imidazole buffer. […]
DCLK1 kinase activity was measured in vitro using an electrophoretic mobility shift assay. […] Substrate and product peptides present in each sample were electrophoretically separated and detected using 12-channel LabChip3000 microfluidic capillary electrophoresis instrument (Caliper Life Sciences, Waltham Mass., USA). The change in the relative fluorescence intensities of substrate and product peaks (reflecting enzyme activity) was measured. Capillary electrophoregrams were analyzed using HTS Well Analyzer software (Caliper Life Sciences, Waltham Mass., USA).
A general note: In EMSA bound probe runs differently from free probe, usually more slowly.

Consider `COc1cc(N2CCN(C)CC2)ccc1Nc1ncc2c(n1)N(C)c1ccccc1C(=O)N2CC(F)(F)F` [Compound 2, 2-((2-methoxy-4-(4-methylpiperazin-1-yl)phenyl)amino)-11-methyl-5-(2,2,2-trifluoroethyl)-5,11-dihydro-6H-benzo[e]pyrimido[5,4-b][1,4]diazepin-6-one], for which the “IC50 against DCLK1 compared with the positive control (FIG. 2)” value is “substantially decreased from the IC50 value of the positive control”.

On to `COc1cc(C(=O)NC2CCN(C)CC2)ccc1Nc1ncc2c(n1)N(C)c1ccccc1C(=O)N2CC(F)(F)F` [Compound 8, 3-methoxy-4-((11-methyl-6-oxo-5-(2,2,2-trifluoroethyl)-6,11-dihydro-5H-benzo[e]pyrimido[5,4-b][1,4]diazepin-2-yl)amino)-N-(1-methylpiperidin-4-yl)benzamide], for which the “IC50 against DCLK1 compared with the positive control (FIG. 2)” value was “substantially decreased from the IC50 value of the positive control”.
